# Patent EP4775575A1, “COMPOUND USED AS CDK4 KINASE INHIBITOR AND USE THEREOF” (TYK Medicines, Inc., priority 2023, dated 2025)
# Key:
# CDK6/CyclinD3 = target: T1, CDK6/CyclinD3 (Homo sapiens, UniProt Q00534); assay: Kinase activity assay (MSA, EZ Reader) against CDK6; type: biochemical; conditions: CDK6/CyclinD3 5.00 nM, ATP 350 µM, FL-Peptide34, 10mM MgCl2
# T1 construct: purchased Carna 04-107
# CDK4/CycD1 = CDK4/CycD1 (Homo sapiens, UniProt P11802); assay: Kinase activity assay (MSA, EZ Reader) against CDK4
# [1] = tested on: human mantle cell lymphoma cells JEKO-1; assay: Cell anti-proliferation assay (MTT), JEKO-1; type: cell-based; conditions: Homo sapiens, 120 h, JEKO-1 cells, incubated for 5 days
# Experimental: (§1) Human breast cancer cells MCF-7, human ovarian cancer cells A2780, human mantle cell lymphoma cells JEKO-1. DMEM medium (Bio-Channel), DMSO (dimethyl sulfoxide), MTT (thiazolyl blue), 0.25% EDTA-Trypsin (trypsin digestive solution), 1×PBS (phosphate buffered saline, pH 7.2), 96-well plate (Corning), fetal bovine serum (FBS), 10,000 U/mL penicillin-G/streptomycin, high-speed refrigerated centrifuge (EPPENDORF 5810R), and microplate reader (Tecan Spark).
# (§2) • A) Tumor cells were cultured in DMEM (high glucose, containing 10% FBS and 100 U/mL penicillin-G/streptomycin) at 37 °C, 5% CO2 and saturated humidity until 80-90% confluence. • B) The medium in the 10 cm culture dish was removed. • C) Cells were rinsed once with 10 mL of 1×PBS. • D) 4 mL of 0.25% EDTA-Trypsin was added, and the cells were digested in a 37 °C, 5% CO2 incubator for 5 minutes. The mixture was transferred to a 15 mL centrifuge tube, centrifuged at 200 g for 5 minutes, and the supernatant was discarded to obtain cell pellet. • E) The cells were resuspended in 4 mL of DMEM medium, counted, and adjusted to 50,000 cells/mL. • F) 100 µL of cell suspension was added to each well of a 96-well plate, and the plate was incubated overnight at 37 °C in a 5% CO2 incubator.
# (§3) • A) Gradient dilution solutions of the test compounds were prepared: the test compound was prepared into a 1 mM stock solution. Then 1.5 µL of the stock solution was dissolved in 1.5 mL of DMSO-free medium, followed by 3-fold serial gradient dilution with medium containing 0.1% DMSO to give 9 concentrations.
# (§4) • A) The cell culture plate was taken out, and 10 µL of 5 mg/mL MTT was added in a biological safety cabinet; • B) The plate was returned to the incubator and incubated for another 3 hours; • C) The cell culture plate was taken out and the medium was removed, 100 µL of isopropanol (containing 0.4 mM HCl, 0.1% NP-40) was added, and the plate was shaken at room temperature for 30 minutes; • D) The absorbance at 570 nm was measured using a TECAN microplate reader.
# [2] = tested on: human ovarian cancer cells A2780; assay: Cell anti-proliferation assay (MTT), A2780; type: cell-based; conditions: Homo sapiens, 120 h, incubated for 5 days
# Experimental: as §1, §2, §3, §4
# [3] = tested on: Human breast cancer cells MCF-7; assay: Cell anti-proliferation assay (MTT), MCF-7; type: cell-based; conditions: Homo sapiens, MCF7, 120 h, MCF-7 cells, incubated for 5 days
# Experimental: as §1, §2, §3, §4
# [4] = Preclinical pharmacokinetic study in rats; type: in vivo, Sprague-Dawley (SD) rats; conditions: male SD rats, oral gavage (p.o.) 10 mg/kg, plasma
# Experimental: Healthy adult Sprague-Dawley (SD) rats, male, 6-8 weeks old, weighing 200-300 g. EDTA-Na2 anticoagulant. Analytical balance, animal weighing scale, magnetic stirrer, refrigerated centrifuge, single-channel manual pipette, etc. About 10 mg of the test sample was precisely weighed, dissolved in a calculated volume of 5% DMSO, followed by addition of 10% solutol HS-15 and 85% normal saline. The mixture was sonicated and vortexed to homogeneity to obtain a solution with a concentration of 1 mg/mL. The solution was freshly prepared before use. Animals were housed in rat cages and fasted overnight (no less than 10 h) before the test, with free access to water. On the day of the test, animals were weighed and marked on the tail. Blank blood samples were collected before administration. The blood was collected via tail vein. • Route of administration: oral gavage (p.o.) • Dose: 10 mg/kg • Dosing volume: 10 mL/kg • Procedure: The rat was held upright with the left hand wearing bite-resistant glove. A 16-gauge gavage needle was inserted through the mouth into the esophagus. The needle was advanced gently without obvious resistance, and the drug solution was injected into the stomach. Whole blood (0.1 mL) were collected from each test animal before administration and at 0.5 […], and 24 h after administration into EDTA-Na2 anticoagulant tubes. The tubes were inverted 3-4 times for mixing, then centrifuged at 10,000 g for 5 min at 4 °C to separate plasma. Plasma samples were stored at -80 °C until analysis. Blood was collected via tail vein. […] The mixture was vortexed for 2 min and centrifuged at 10,000 g for 10 min at 4 °C. Processing of unknown plasma samples: 25 μL of drug-containing rat plasma was transferred, followed by addition of 25 μL of methanol and 200 μL of internal standard solution. The mixture was vortexed for 2 min and centrifuged at 10,000 g for 10 min at 4 °C. The supernatant was collected for LC-MS/MS analysis. A quantitative method for the determination of the test compound was established using a Shimadzu liquid chromatography system coupled with Triple Quad^TM 6500+ AB mass spectrometer. The concentration of the parent drug in plasma was determined. The plasma concentration-time curve was plotted, and the main pharmacokinetic parameters were calculated using a non-compartmental model in winnonlin Phoenix software.
# T1 sequence (Q00534 whole entry): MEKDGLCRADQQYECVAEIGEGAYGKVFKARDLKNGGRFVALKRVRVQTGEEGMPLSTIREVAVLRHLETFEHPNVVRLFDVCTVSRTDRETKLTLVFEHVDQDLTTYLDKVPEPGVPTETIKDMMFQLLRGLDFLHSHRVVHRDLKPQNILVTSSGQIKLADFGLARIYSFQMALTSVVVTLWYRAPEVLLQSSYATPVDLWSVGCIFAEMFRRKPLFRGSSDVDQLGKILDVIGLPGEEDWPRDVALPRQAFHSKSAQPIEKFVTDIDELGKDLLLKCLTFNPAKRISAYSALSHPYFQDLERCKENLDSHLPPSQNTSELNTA
# T1 sequence (P30281 whole entry partner): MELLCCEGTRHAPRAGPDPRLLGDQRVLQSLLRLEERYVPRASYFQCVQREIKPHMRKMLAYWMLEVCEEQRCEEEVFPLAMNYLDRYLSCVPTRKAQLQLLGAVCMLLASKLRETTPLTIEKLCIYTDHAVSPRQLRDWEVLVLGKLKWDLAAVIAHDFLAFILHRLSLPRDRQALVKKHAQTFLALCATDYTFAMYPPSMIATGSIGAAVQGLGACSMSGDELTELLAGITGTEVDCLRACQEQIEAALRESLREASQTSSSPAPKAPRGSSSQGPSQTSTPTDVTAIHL
# CDK4/CycD1, sequence (P11802 whole entry): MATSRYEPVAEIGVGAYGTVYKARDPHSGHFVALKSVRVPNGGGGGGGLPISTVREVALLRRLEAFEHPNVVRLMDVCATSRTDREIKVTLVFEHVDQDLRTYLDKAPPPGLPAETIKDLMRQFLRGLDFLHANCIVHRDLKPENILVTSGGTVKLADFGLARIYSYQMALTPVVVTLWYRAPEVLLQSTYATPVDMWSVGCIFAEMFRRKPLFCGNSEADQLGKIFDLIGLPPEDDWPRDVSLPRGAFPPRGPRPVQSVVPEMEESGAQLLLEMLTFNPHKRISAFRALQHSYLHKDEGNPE
smiles,measurement,setting,value
"CC(C)n1c(N2CCOC2=O)nc2c(F)cc(-c3nc(Nc4ccc(S(=O)(=O)NCCN(C)C)cc4)ncc3Cl)cc21 [TB-38, 4-((5-chloro-4-(4-fluoro-1-isopropyl-2-(2-oxooxazolidin-3-yl)-1H-benzo[d]imidazol-6-yl)pyrimidin-2-yl)amino)-N-(2-(dimethylamino)ethyl)benzenesulfonamide]",IC50,CDK6/CyclinD3,0.0766 µM
same,IC50,CDK4/CycD1,0.0185 µM
same,IC50,[1],≤ 0.5 µM
same,IC50,[2],≤ 0.5 µM
same,IC50,[3],≤ 0.5 µM
CC(C)n1c(N2CCCC2=O)nc2c(F)cc(-c3nc(N[C@@H]4CCOC[C@H]4O)ncc3Cl)cc21 [TB-23],IC50,CDK4/CycD1,0.185 µM
"CN1CCn2c1nc1c(F)cc(-c3nc(N[C@@H]4CCOC[C@H]4O)ncc3Cl)cc12 [TB-45, (3S,4R)-4-((5-chloro-4-(8-fluoro-1-methyl-2,3-dihydro-1H-benzo[d]imidazo[1,2-a]imidazol-6-yl)pyrimidin-2-yl)amino)tetrahydro-2H-pyran-3-ol]",IC50,CDK6/CyclinD3,0.241 µM
same,IC50,[1],≤ 0.5 µM
same,IC50,[2],≤ 0.5 µM
same,IC50,[3],≤ 0.5 µM
"C[C@@H]1CCN(C)c2nc3c(F)cc(-c4nc(N[C@@H]5CCOC[C@H]5O)ncc4Cl)cc3n21 [TB-91, (3S,4R)-4-((5-chloro-4-((R)-9-fluoro-1,4-dimethyl-1,2,3,4-tetrahydrobenzo[4,5]imidazo[1,2-a]pyrimidin-7-yl)pyrimidin-2-yl)amino)tetrahydro-2H-pyran-3-ol]",IC50,CDK6/CyclinD3,0.0684 µM
same,IC50,[1],≤ 0.5 µM
same,IC50,[2],≤ 0.5 µM
same,IC50,[3],≤ 0.5 µM
CC(C)n1c(N2CCCOC2=O)nc2c(F)cc(-c3nc(NC4CCN(S(C)(=O)=O)CC4)ncc3Cl)cc21 [TB-142],IC50,CDK6/CyclinD3,0.361 µM
same,IC50,CDK4/CycD1,0.0695 µM
CN1CCCn2c1nc1c(F)cc(-c3nc(N[C@@H]4CCOC[C@H]4O)ncc3Cl)cc12 [TB-40],IC50,CDK6/CyclinD3,0.229 µM
same,IC50,[1],≤ 0.5 µM
same,IC50,[2],≤ 0.5 µM
same,IC50,[3],≤ 0.5 µM
"COCc1cc(Nc2ncc(Cl)c(-c3cc(F)c4nc5n(c4c3)CCCN5C)n2)ccn1 [TB-130, 5-chloro-4-(9-fluoro-1-methyl-1,2,3,4-tetrahydrobenzo[4,5]imidazo[1,2-a]pyrimidin-7-yl)-N-(2-(methoxymethyl)pyridin-4-yl)pyrimidin-2-amine]",IC50,CDK6/CyclinD3,0.155 µM
same,IC50,[1],≤ 0.5 µM
same,IC50,[2],≤ 0.5 µM
same,IC50,[3],≤ 0.5 µM
"CC(C)n1c(N2CCOC2=O)nc2c(F)cc(-c3nc(Nc4ccc(S(C)(=O)=O)cc4)ncc3Cl)cc21 [TB-54, 3-(6-(5-chloro-2-((4-(methylsulfonyl)phenyl)amino)pyrimidin-4-yl)-4-fluoro-1-isopropyl-1H-benzo[d]imidazol-2-yl)oxazolidin-2-one]",IC50,CDK6/CyclinD3,0.411 µM
same,IC50,CDK4/CycD1,0.101 µM
"CN1CCCn2c1nc1c(F)cc(-c3nc(NC4CCOCC4)ncc3Cl)cc12 [TB-132, 5-chloro-4-(9-fluoro-1-methyl-1,2,3,4-tetrahydrobenzo[4,5]imidazo[1,2-a]pyrimidin-7-yl)-N-(tetrahydro-2H-pyran-4-yl)pyrimidin-2-amine]",IC50,CDK6/CyclinD3,0.246 µM
same,IC50,[1],≤ 0.5 µM
same,IC50,[2],≤ 0.5 µM
same,IC50,[3],0.5 to 2 µM
CC1(C)Cn2c(nc3c(F)cc(-c4nc(N[C@@H]5CCOC[C@H]5O)ncc4Cl)cc32)S(=O)(=O)C1 [TB-148],IC50,CDK6/CyclinD3,0.222 µM
same,IC50,CDK4/CycD1,0.0714 µM
"CNS(=O)(=O)c1ccc(Nc2ncc(Cl)c(-c3cc(F)c4nc(N(C)C)n(C(C)C)c4c3)n2)cc1 [TB-20, 4-((5-chloro-4-(2-(dimethylamino)-4-fluoro-1-isopropyl-1H-benzo[d]imidazol-6-yl)pyrimidin-2-yl)amino)-N-methylbenzenesulfonamide]",IC50,CDK6/CyclinD3,0.141 µM
same,IC50,CDK4/CycD1,0.0446 µM
"CN1CCCn2c1nc1c(F)cc(-c3nc(N[C@@H]4CCOC[C@H]4O)ncc3F)cc12 [TB-42, (3S,4R)-4-((5-fluoro-4-(9-fluoro-1-methyl-1,2,3,4-tetrahydrobenzo[4,5]imidazo[1,2-a]pyrimidin-7-yl)pyrimidin-2-yl)amino)tetrahydro-2H-pyran-3-ol]",IC50,CDK6/CyclinD3,0.195 µM
same,IC50,[1],≤ 0.5 µM
same,IC50,[2],≤ 0.5 µM
same,IC50,[3],≤ 0.5 µM
C[C@H]1CCN(C)c2nc3c(F)cc(-c4nc(N[C@@H]5CCN(S(C)(=O)=O)C[C@H]5O)ncc4Cl)cc3n21 [TB-96],IC50,CDK6/CyclinD3,0.0203 µM
same,IC50,CDK4/CycD1,0.0021 µM
CN1CCCn2c1nc1c(F)cc(-c3nc(Nc4ccncc4)ncc3Cl)cc12 [TB-90],IC50,CDK6/CyclinD3,0.0952 µM
same,IC50,[1],≤ 0.5 µM
same,IC50,[2],≤ 0.5 µM
same,IC50,[3],0.5 to 2 µM
"CN1CCn2c1nc1c(F)cc(-c3nc(NC4CCN(S(C)(=O)=O)CC4)ncc3Cl)cc12 [TB-52, 5-chloro-4-(8-fluoro-1-methyl-2,3-dihydro-1H-benzo[d]imidazo[1,2-a]imidazol-6-yl)-N-(1-(methylsulfonyl)piperidin-4-yl)pyrimidin-2-amine]",IC50,CDK6/CyclinD3,0.0406 µM
same,IC50,[1],≤ 0.5 µM
same,IC50,[2],≤ 0.5 µM
same,IC50,[3],≤ 0.5 µM
CC(C)n1c(N(C)C)nc2c(F)cc(-c3nc(N[C@H]4CC[C@@H](NS(C)(=O)=O)CC4)ncc3Cl)cc21 [TB-4],IC50,CDK4/CycD1,0.0271 µM
"CNS(=O)(=O)N1CCC(Nc2ncc(Cl)c(-c3cc(F)c4nc5n(c4c3)CCCN5C)n2)CC1 [TB-144, 4-((5-chloro-4-(9-fluoro-1-methyl-1,2,3,4-tetrahydrobenzo[4,5]imidazo[1,2-a]pyrimidin-7-yl)pyrimidin-2-yl)amino)-N-methylpiperidine-1-sulfonamide]",IC50,CDK6/CyclinD3,0.126 µM
same,IC50,[1],≤ 0.5 µM
same,IC50,[2],≤ 0.5 µM
same,IC50,[3],≤ 0.5 µM
"C[C@H]1CCN(C)c2nc3c(F)cc(-c4nc(N[C@@H]5CCOC[C@H]5O)ncc4Cl)cc3n21 [TB-92, (3S,4R)-4-((5-chloro-4-((S)-9-fluoro-1,4-dimethyl-1,2,3,4-tetrahydrobenzo[4,5]imidazo[1,2-a]pyrimidin-7-yl)pyrimidin-2-yl)amino)tetrahydro-2H-pyran-3-ol]",IC50,CDK6/CyclinD3,0.123 µM
same,AUC(0-t),"[4]; Sprague-Dawley, rat",5.03 µg·h/mL
same,Cmax,"[4]; Sprague-Dawley, rat",1.94 µg/mL
same,Tmax,"[4]; Sprague-Dawley, rat",30 min
same,HL_,[4],1.21 h
same,IC50,[1],≤ 0.5 µM
same,IC50,[2],≤ 0.5 µM
same,IC50,[3],≤ 0.5 µM
CC(C)n1c(N2CCOC2=O)nc2c(F)cc(-c3ccnc(NC4CCN(S(C)(=O)=O)CC4)n3)cc21 [TB-94],IC50,CDK6/CyclinD3,0.458 µM
same,IC50,CDK4/CycD1,0.0444 µM
"CN1C(=O)CCn2c1nc1c(F)cc(-c3nc(N[C@@H]4CCOC[C@H]4O)ncc3Cl)cc12 [TB-46, 7-(5-chloro-2-(((3S,4R)-3-hydroxytetra hydro-2H-pyran-4-yl)amino)pyrimidin-4-yl)-9-fluoro-1-methyl-3,4-dihydrobenzo[4,5]imidazo[1,2-a]pyrimidin-2(1H)-one]",IC50,CDK6/CyclinD3,0.244 µM
same,IC50,[1],≤ 0.5 µM
same,IC50,[2],≤ 0.5 µM
same,IC50,[3],≤ 0.5 µM
